Tests used:
[1] = target: aurora B (Homo sapiens, UniProt Q96GD4); test: radioisotope-based P81 filter-binding assay, aurora B kinase; format: biochemical; details: for IC50: averaged from two independent dose-response curves, read-out: Enzyme assay IC50 Aur B
Protocol: (§1) Compounds of formula (I)-(IV) were evaluated for abilities in inhibiting protein kinases aurora B and FLT-3 activity using radioisotope-based P81 filter-binding assay (Table 1).

[2] = target: T1, FLT-3 (Homo sapiens, UniProt P36888); test: radioisotope-based P81 filter-binding assay, FLT-3 kinase; format: biochemical; details: for IC50: averaged from two independent dose-response curves, read-out: Enzyme assay IC50 FLT-3
T1 sequence (P36888 27-993): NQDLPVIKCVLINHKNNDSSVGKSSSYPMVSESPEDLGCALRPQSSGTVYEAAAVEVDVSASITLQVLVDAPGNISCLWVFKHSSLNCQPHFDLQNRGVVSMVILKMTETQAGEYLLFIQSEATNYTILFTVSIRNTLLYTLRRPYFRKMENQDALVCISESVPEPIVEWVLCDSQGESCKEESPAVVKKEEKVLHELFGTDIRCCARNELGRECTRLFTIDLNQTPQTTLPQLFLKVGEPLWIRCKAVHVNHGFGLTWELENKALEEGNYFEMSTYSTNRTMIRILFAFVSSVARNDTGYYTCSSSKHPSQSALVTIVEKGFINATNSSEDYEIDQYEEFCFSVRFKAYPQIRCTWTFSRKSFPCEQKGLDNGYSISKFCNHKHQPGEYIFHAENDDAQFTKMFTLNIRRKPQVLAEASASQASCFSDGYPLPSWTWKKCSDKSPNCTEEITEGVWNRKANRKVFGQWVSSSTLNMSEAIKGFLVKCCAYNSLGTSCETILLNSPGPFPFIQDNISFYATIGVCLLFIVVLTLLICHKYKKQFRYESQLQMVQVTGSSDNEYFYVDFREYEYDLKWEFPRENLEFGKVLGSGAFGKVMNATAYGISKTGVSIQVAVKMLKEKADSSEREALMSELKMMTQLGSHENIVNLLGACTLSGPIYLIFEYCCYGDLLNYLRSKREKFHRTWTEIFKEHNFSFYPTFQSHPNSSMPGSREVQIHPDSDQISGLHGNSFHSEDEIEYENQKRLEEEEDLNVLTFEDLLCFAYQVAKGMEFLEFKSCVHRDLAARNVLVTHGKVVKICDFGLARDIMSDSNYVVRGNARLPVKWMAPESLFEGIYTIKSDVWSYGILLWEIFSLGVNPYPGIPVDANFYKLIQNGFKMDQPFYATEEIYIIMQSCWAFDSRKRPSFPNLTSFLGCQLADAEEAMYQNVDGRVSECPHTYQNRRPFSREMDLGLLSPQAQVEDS
Protocol: as §1

[3] = test system: MV4-11 human acute myelomonocytic leukemia cells; test: anti-proliferation, SRB colorimetric assay, MV4-11; format: cell-based; details: concentration required for 50% growth inhibition
Protocol: HCT116 human colorectal carcinoma cells (Table 3), HepG2 human hepatocellular carcinoma cells (Table 4), and MV4-11 human acute myelomonocytic leukemia cells (Table 5). Cells were treated with the test compound and the concentration required for 50% growth inhibition (IC50) determined by sulfomodamine B (SRB) colorimetric assay.

Chain of aurora B (Q96GD4 whole entry): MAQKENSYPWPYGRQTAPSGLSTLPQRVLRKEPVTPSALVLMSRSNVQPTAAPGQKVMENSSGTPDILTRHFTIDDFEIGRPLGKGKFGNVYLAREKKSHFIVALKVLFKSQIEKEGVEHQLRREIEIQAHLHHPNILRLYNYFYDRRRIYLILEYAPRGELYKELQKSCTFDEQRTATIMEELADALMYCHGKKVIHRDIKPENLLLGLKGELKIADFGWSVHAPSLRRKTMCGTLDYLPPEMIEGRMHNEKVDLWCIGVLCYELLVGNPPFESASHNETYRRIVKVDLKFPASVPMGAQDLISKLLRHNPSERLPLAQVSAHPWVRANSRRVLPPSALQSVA

| IC50 [1] [nM] | IC50 [2] [nM] | IC50 [3] [nM] | melting point | inhibition at 1 µM ([1]; compound at 1.0 μM, mean values (n=2), read-out: percent inhibition of enzyme catalytic activity, Aur B (numbers in parentheses)) [%] | inhibition at 1 µM ([2]; compound at 1.0 μM, mean values (n=2), read-out: percent inhibition of enzyme catalytic activity, FLT-3 (numbers in parentheses)) [%] | Structure (SMILES) |
| --- | --- | --- | --- | --- | --- | --- |
| 15 | 385 | 0.79 | 280 to 285 °C (dec.) | – | – | O=C(NC(=O)c1ccc(Cl)c(C(F)(F)F)c1)Nc1ccc2c(c1)NC(=O)/C2=C\c1ccc[nH]1 [D28, (Z)—N-(3-((1H-pyrrol-2-yl)methylene)-2-oxoindolin-6-ylcarbamoyl)-4-chloro-3-(trifluoromethyl)benzamide] |
| 94.6 | > 1000 | 17.8 | – | – | – | Cn1cc(C(=O)Nc2ccc3c(c2)NC(=O)/C3=C\c2ccc[nH]2)c(=O)c(-c2ccc(F)cc2)c1 [D138, (Z)—N-(3-((1H-pyrrol-2-yl)methylene)-2-oxoindolin-6-yl)-5-(4-fluorophenyl)-1-methyl-4-oxo-1,4-dihydropyridine-3-carboxamide] |
| 42.8 | 34.9 | 1.96 | 205 °C (dec.) | – | – | COc1ccc(-c2c[nH]cc(C(=O)Nc3ccc4c(c3)NC(=O)/C4=C\c3[nH]c(C)c(C(=O)N4CCOCC4)c3C)c2=O)cc1 [D155, (Z)—N-(3-((3,5-dimethyl-4-(morpholine-4-carbonyl)-1H-pyrrol-2-yl)methylene)-2-oxoindolin-6-yl)-5-(4-methoxyphenyl)-4-oxo-1,4-dihydropyridine-3-carboxamide] |
| 5 | 7.3 | 3.03 | 275 °C (dec.) | – | – | Cc1[nH]c(/C=C2\C(=O)Nc3cc(NC(=O)c4cccn(-c5ccc(F)cc5)c4=O)ccc32)c(C)c1CC(=O)O [D121, (Z)-2-(5-((6-(1-(4-fluorophenyl)-2-oxo-1,2-dihydropyridine-3-carboxamido)-2-oxoindolin-3-ylidene)methyl)-2,4-dimethyl-1H-pyrrol-3-yl)acetic acid] |
| > 1000 | 77.4 | 7.19 | – | – | – | O=C1Nc2cc(NC(=O)c3cccn(-c4ccc(Cl)c(C(F)(F)F)c4)c3=O)ccc2/C1=C/c1ccc[nH]1 [D109, (Z)—N-(3-((1H-pyrrol-2-yl)methylene)-2-oxoindolin-6-yl)-1-(4-chloro-(3-trifluoromethyl)phenyl)-2-oxo-1,2-dihydropyridine-3-carboxamide] |
| > 1000 | 8.1 | 1.39 | > 300 °C | – | – | Cc1cc(C)c(/C=C2\C(=O)Nc3cc(NC(=O)c4cccn(-c5ccc(F)cc5)c4=O)ccc32)[nH]1 [D119, (Z)—N-(3-((3,5-dimethyl-1H-pyrrol-2-yl)methylene)-2-oxoindolin-6-yl)-1-(4-fluorophenyl)-2-oxo-1,2-dihydropyridine-3-carboxamide] |
| > 1000 | 26.3 | 0.88 | > 300 °C | – | – | O=C1Nc2cc(NC(=O)c3cccn(-c4ccc(Cl)cc4)c3=O)ccc2/C1=C/c1ccc[nH]1 [D108] |
| 3.4 | 1.6 | 9.45 | > 300 °C | – | – | Cc1[nH]c(/C=C2\C(=O)Nc3cc(NC(=O)c4c[nH]cc(-c5ccc(F)cc5)c4=O)ccc32)c(C)c1CCC(=O)O [D145, (Z)-3-(5-((6-(5-(4-fluorophenyl)-4-oxo-1,4-dihydropyridine-3-carboxamido)-2-oxoindolin-3-ylidene)methyl)-2,4-dimethyl-1H-pyrrol-3-yl)propanoic acid] |
| 5.5 | 3.5 | 15.8 | > 300 °C | – | – | Cc1[nH]c(/C=C2\C(=O)Nc3cc(NC(=O)c4cccn(-c5ccc(F)cc5)c4=O)ccc32)c(C)c1CCC(=O)O [D122] |
| 3.5 | 2.9 | 0.81 | 283 °C | – | – | Cc1[nH]c(/C=C2\C(=O)Nc3cc(NC(=O)c4c[nH]cc(-c5ccc(F)cc5)c4=O)ccc32)c(C)c1C(=O)O [D141, (Z)-5-((6-(5-(4-fluorophenyl)-4-oxo-1,4-dihydropyridine-3-carboxamido)-2-oxoindolin-3-ylidene)methyl)-2,4-dimethyl-1H-pyrrole-3-carboxylic acid] |
| 238 | 45.2 | 1.56 | 266 to 270 °C | – | – | COC(=O)CCc1c(C)[nH]c(/C=C2\C(=O)Nc3cc(NC(=O)c4cccn(-c5ccc(F)cc5)c4=O)ccc32)c1C [D123, (Z)-methyl-3-(5-((6-(1-(4-fluorophenyl)-2-oxo-1,2-dihydropyridine-3-carboxamido)-2-oxoindolin-3-ylidene)methyl)-2,4-dimethyl-1H-pyrrol-3-yl)propanoate] |
| 209 | 37.5 | 3.42 | > 300 °C | – | – | Cc1ccc(-n2cccc(C(=O)Nc3ccc4c(c3)NC(=O)/C4=C\c3ccc[nH]3)c2=O)cc1 [D111, (Z)—N-(3-((1H-pyrrol-2-yl)methylene)-2-oxoindolin-6-yl)-2-oxo-1-p-tolyl-1,2-dihydropyridine-3-carboxamide] |
| 4.5 | 24.6 | 6.69 | – | – | – | COc1ccc(-c2c[nH]cc(C(=O)Nc3ccc4c(c3)NC(=O)/C4=C\c3[nH]c(C)c(C(=O)O)c3C)c2=O)cc1 [D142, (Z)-5-((6-(5-(4-methoxyphenyl)-4-oxo-1,4-dihydropyridine-3-carboxamido)-2-oxoindolin-3-ylidene)methyl)-2,4-dimethyl-1H-pyrrole-3-carboxylic acid] |
| 689 | 134 | 2.78 | > 300 °C | – | – | O=C1Nc2cc(NC(=O)c3cccn(-c4cccc(C(F)(F)F)c4)c3=O)ccc2/C1=C/c1ccc[nH]1 [D113] |
| > 1000 | 137 | 2.09 | > 300 °C | – | – | O=C1Nc2cc(NC(=O)c3cccn(-c4ccc(C(F)(F)F)cc4)c3=O)ccc2/C1=C/c1ccc[nH]1 [D112] |
| 87.4 | 48.4 | 0.13 | > 300 °C | – | – | O=C1Nc2cc(NC(=O)c3cccn(-c4ccccc4)c3=O)ccc2/C1=C/c1ccc[nH]1 [D105, (Z)—N-(3-((1H-pyrrol-2-yl)methylene)-2-oxoindolin-6-yl)-2-oxo-1-phenyl-1,2-dihydropyridine-3-carboxamide] |
| 10.7 | 8.1 | 0.23 | > 300 °C | – | – | Cc1[nH]c(/C=C2\C(=O)Nc3cc(NC(=O)c4cccn(-c5ccc(F)cc5)c4=O)ccc32)c(C)c1C(=O)O [D120, (Z)-5-((6-(1-(4-fluorophenyl)-2-oxo-1,2-dihydropyridine-3-carboxamido)-2-oxoindolin-3-ylidene)methyl)-2,4-dimethyl-1H-pyrrole-3-carboxylic acid] |
| 2.3 | 1.3 | 22.8 | > 300 °C | – | – | Cc1[nH]c(/C=C2\C(=O)Nc3cc(NC(=O)c4c[nH]cc(-c5ccc(F)cc5)c4=O)ccc32)c(C)c1CC(=O)O [D144, (Z)-2-(5-((6-(5-(4-fluorophenyl)-4-oxo-1,4-dihydropyridine-3-carboxamido)-2-oxoindolin-3-ylidene)methyl)-2,4-dimethyl-1H-pyrrol-3-yl)acetic acid] |
| 19.2 | 11.6 | 2.57 | > 300 °C | – | – | COc1ccc(-c2c[nH]cc(C(=O)Nc3ccc4c(c3)NC(=O)/C4=C\c3[nH]c(C)c(C(=O)NCCN4CCCC4)c3C)c2=O)cc1 [D156, (Z)—N-(3-((3,5-dimethyl-4-((2-(pyrrolidin-1-yl)ethyl)carbamoyl)-1H-pyrrol-2-yl)methylene)-2-oxoindolin-6-yl)-5-(4-methoxyphenyl)-4-oxo-1,4-dihydropyridine-3-carboxamide] |
| 14.3 | 1790 | – | > 300 °C | – | – | O=C1Nc2cc(NC(=O)N3CCN(c4cccc(Cl)c4)C3=O)ccc2/C1=C/c1ccc[nH]1 [D85, (Z)—N-(3-((1H-pyrrol-2-yl)methylene)-2-oxoindolin-6-yl)-3-(3-chlorophenyl)-2-oxoimidazolidine-1-carboxamide] |
| – | – | – | 274 to 279 °C (dec.) | 55.9 | 43.2 | COc1ccc(/C=C2/C(=O)Nc3cc(NC(=O)NC(=O)c4ccc(OC)cc4)ccc32)cc1 [D19, (E)-4-methoxy-N-(3-(4-methoxybenzylidene)-2-oxoindolin-6-yl-carbamoyl)benzamide] |

— patent US8946282B2, “Indolin-2-one derivatives as protein kinase inhibitors” (Annji Pharmaceutical Co., Ltd., priority 2012, dated 2015)
